Laboratory results as given in publication PMC4519324, “Substrate Specificity, Inhibitor Selectivity and Structure-Function Relationships of Aldo-Keto Reductase 1B15: A Novel Human Retinaldehyde Reductase” (PLoS ONE, 2015).
Where two headings read alike, the source gives them in different places.

Key:
AKR1B10 [1] = molecular target: T1, AKR1B10 (Homo sapiens, UniProt O60218); conditions: AKR1B10, values in Table 3; cited from earlier work
T1 construct: made in house

AKR1B15 [2] = molecular target: T2, AKR1B15 (Homo sapiens, UniProt C9JRZ8); assay: Inhibition screening with D,L-glyceraldehyde as substrate; assay type: biochemical; conditions: 6 mM D,L-glyceraldehyde as substrate, 0.1% DMSO
T2 construct: made in house; host or cells: E. coli BL21(DE3), with or without chaperone plasmids pBB540/pBB542
T2 sequence (C9JRZ8 whole entry): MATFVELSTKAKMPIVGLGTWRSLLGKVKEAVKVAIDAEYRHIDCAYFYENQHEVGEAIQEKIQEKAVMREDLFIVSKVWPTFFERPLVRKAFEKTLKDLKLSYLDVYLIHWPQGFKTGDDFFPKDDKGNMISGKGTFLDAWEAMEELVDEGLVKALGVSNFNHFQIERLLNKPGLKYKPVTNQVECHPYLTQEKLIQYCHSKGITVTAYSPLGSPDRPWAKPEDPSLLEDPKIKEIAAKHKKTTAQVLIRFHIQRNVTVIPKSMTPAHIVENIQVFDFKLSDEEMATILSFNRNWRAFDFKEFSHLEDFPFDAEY
Description: (§1) Activities were determined in 100 mM sodium phosphate, pH 7.0, at 25°C, using 0.2 mM NADPH in 0.2-cm path length cuvettes, with freshly prepared substrate solutions. One unit of activity is defined as the amount of enzyme required to transform 1 μmol of substrate per min at 25°C.
(§2) All compounds tested as inhibitors were dissolved in DMSO and assayed in a final concentration of 0.1% (v/v) DMSO using 6 mM D,L-glyceraldehyde as a substrate. Kinetic constant and IC50 (compound concentration that inhibits enzymatic activity by 50%) values were calculated by fitting the initial rates to the appropriate equation using Grafit 5.0 (Eritacus Software) and values were given as the mean ± standard error of three experiments. Standard error values were less than 20% of the mean values.

AKR1B10 [3] = molecular target: T1, AKR1B10; assay: Inhibition of enzymatic activity with D,L-glyceraldehyde as substrate; assay type: biochemical
Description: as §1, §2

AKR1B10 [4] = molecular target: T1, AKR1B10; assay: NADPH binding by quenching of Trp intrinsic fluorescence; conditions: 0.5 μM protein, 20 mM sodium phosphate, pH 7.0, 25°C, read-out: K D value for NADPH
Description: (§3) NADPH binding was analyzed by quenching of Trp intrinsic fluorescence of 0.5 μM protein, using a Cary Eclipse (Varian) fluorimeter, in 20 mM sodium phosphate, pH 7.0, at 25°C in a final volume of 1 mL. The excitation wavelength was 290 nm and the emission wavelength was monitored at 340 nm. AKR1B10 was used as a control. The dissociation constant (K D) values were calculated by nonlinear fitting of experimental data, using Grafit 5.0 (Eritacus Software), to the Morrison equation: ΔF=ΔFmax·[E]+[NADPH]+KD−([E]+[NADPH]+KD)^2−4·[E]·[NADPH]/2·[E]

AKR1B15 [5] = molecular target: T2, AKR1B15; assay: as above; conditions: 0.5 μM protein, 20 mM sodium phosphate, pH 7.0, 25°C, read-out: K D value for NADPH
Description: as §3

AKR1B15 [6] = molecular target: T2, AKR1B15; assay: Spectrophotometric activity assay (NADPH decrease at 340 nm), substrate kinetics; assay type: biochemical; conditions: 3 mM D,L-glyceraldehyde, read-out: Km (μM) for cofactor NADPH
AKR1B10 [7] = molecular target: T1, AKR1B10; assay: as above; assay type: biochemical; conditions: 60 mM D,L-glyceraldehyde, read-out: Km (μM) for cofactor NADPH
AKR1B1 = molecular target: T3, AKR1B1 (Homo sapiens, UniProt P15121); conditions: read-out: Km (μM) for cofactor NADPH; cited from earlier work
T3 construct: made in house

T1 sequence (O60218 whole entry): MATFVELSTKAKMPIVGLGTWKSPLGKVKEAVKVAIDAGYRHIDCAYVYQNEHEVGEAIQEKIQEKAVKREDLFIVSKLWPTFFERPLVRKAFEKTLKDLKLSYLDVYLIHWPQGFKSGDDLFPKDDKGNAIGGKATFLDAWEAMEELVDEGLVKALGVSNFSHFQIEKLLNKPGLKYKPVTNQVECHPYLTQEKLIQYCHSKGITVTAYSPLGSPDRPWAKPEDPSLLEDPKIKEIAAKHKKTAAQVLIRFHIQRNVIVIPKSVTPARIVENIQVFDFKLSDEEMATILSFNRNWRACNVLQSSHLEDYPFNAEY

IC50 (AKR1B15 [2]) [nM] | IC50 (AKR1B10 [3]) [nM] | Kd (AKR1B10 [4]) [nM] | Kd (AKR1B15 [5]) [nM] | Km (AKR1B15 [6]) [µM] | Km (AKR1B10 [7]) [µM] | SMILES | IC50 (AKR1B10 [1]) [nM] | Km (AKR1B1) [µM]
> 100000 | 6 | – | – | – | – | COc1ccc2c(C(=S)N(C)CC(=O)O)cccc2c1C(F)(F)F [Tolrestat] | < 10000 | –
– | – | 92 ± 35 | 113 ± 9 | 5.7 | 10 | NC(=O)C1=CN([C@@H]2O[C@H](COP(=O)(O)OP(=O)(O)OC[C@H]3O[C@@H](n4cnc5c(N)ncnc54)[C@H](OP(=O)(O)O)[C@@H]3O)[C@@H](O)[C@H]2O)C=CC1 [NADPH] | – | 2.9
